Target: T1, human GalR3 receptor (Homo sapiens, UniProt O60755)
T1 construct: expressed in transfected cells; membranes
T1 sequence (O60755 1-368): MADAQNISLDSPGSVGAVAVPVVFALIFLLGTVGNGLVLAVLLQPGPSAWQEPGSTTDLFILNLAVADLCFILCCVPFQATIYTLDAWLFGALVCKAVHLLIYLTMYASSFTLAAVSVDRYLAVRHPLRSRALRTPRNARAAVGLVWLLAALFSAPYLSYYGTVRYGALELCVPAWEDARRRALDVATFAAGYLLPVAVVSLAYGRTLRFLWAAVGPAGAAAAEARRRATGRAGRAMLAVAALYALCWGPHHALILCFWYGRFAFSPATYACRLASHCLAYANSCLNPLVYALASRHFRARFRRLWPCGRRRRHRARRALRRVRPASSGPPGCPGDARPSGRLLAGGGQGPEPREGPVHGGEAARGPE
Test: Radioligand binding at cloned human GalR3 receptor
Conditions: Binding Data; membranes of LM(tk-) cells stably transfected with human GalR3
Experimental: The present invention provides for a method of determining the binding affinity of a GalR3 antagonist, wherein the GalR3 antagonist is dissolved in a “suitable solvent”. A “suitable solvent” means one which permits the measurement of binding affinity of the GalR3 antagonist to the human GalR3 receptor at concentrations less than 1 μM, preferably less than 100 nM. Examples of solvents include, but are not limited to, DMSO, ethanol, N,N-dimethylacetamide, or water. For indolones, the preferred solvent is 3% DMSO (final concentration in the assay). For any other type of compounds, the preferred solvent is the solvent which permits the measurement of binding affinity of a GalR3 antagonist at the lowest concentration.
COS-7 cells were grown on 150 mm plates in D-MEM with supplements (Dulbecco's Modified Eagle Medium with 10% bovine calf serum, 4 mM glutamine, 100 units/ml penicillin, 100 μg/ml streptomycin) at 37° C. with 5% CO2. Stock plates of COS-7 cells were trypsinized and split 1:6 every 3–4 days. Human embryonic kidney 293 cells were grown on 150 mm plates in D-MEM with supplements (minimal essential medium) with Hanks' salts and supplements (Dulbecco's Modified Eagle Medium with 10% bovine calf serum, 4 mM glutamine, 100 units/ml penicillin, 100 μg/ml streptomycin) at 37° C. with 5% CO2. Stock plates of 293 cells were trypsinized and split 1:6 every 3–4 days. Mouse fibroblast LM(tk-) cells were grown on 150 mm plates in D-MEM with supplements (Dulbecco's Modified Eagle Medium with 10% bovine calf serum, 4 mM glutamine, 100 units/mL penicillin, 100 μg/mL streptomycin) at 37° C. with 5% CO2. Stock plates of LM(tk-) cells were trypsinized and split 1:10 every 3–4 days. Chinese Hamster Ovary (CHO) cells were grown on 150 mm plates in HAM's F12 medium with (HAM's F-12 with 10% bovine calf serum, 4 mM glutamine, 100 units/mL penicillin, 100 μg/mL streptomycin) at 37° C. with 5% CO2. Stock plates of CHO cells were trypsinized and split 1:8 every 3–4 days. LM(tk-) cells were stably transfected with the human GalR3 receptor.
cDNAs for the human and rat GalR3 receptors were transfected with a G-418 resistant gene into the mouse fibroblast LM(tk-) cell line by a calcium phosphate transfection method (Cullen, 1987).
Membranes were harvested from stably transfected LM(tk-) cells. Adherent cells were washed twice in ice-cold phosphate buffered saline (138 mM NaCl, 8.1 mM Na2HPO4, 2.5 mM KCl, 1.2 mM KH2PO4, 0.9 mM CaCl2, 0.5 mM MgCl2, pH 7.4) and lysed by sonication in ice-cold sonication buffer (20 mM Tris-HCl, 5 mM EDTA, pH 7.7). Large particles and debris were cleared by low speed centrifugation (200×g, 5 min, 4° C.). Membranes were collected from the supernatant fraction by centrifugation (32,000×g, 18 min, 4° C.), washed with ice-cold hypotonic buffer, and collected again by centrifugation (32,000×g, 18 min, 4° C.). The final membrane pellet was resuspended by sonication into a small volume of ice-cold binding buffer (˜1 ml for every 5 plates: 10 mM NaCl, 20 mM HEPES, 0.22 mM KH2PO4, 1.26 mM CaCl2, 0.81 mM MgSO4, pH 7.4). Protein concentration was measured by the Bradford method (Bradford, 1976) using Bio-Rad Reagent, with bovine serum albumin as a standard. Membranes were held on ice for up to one hour and used fresh, or flash frozen and stored in liquid nitrogen. Membranes were prepared similarly from CHO cells.
The methods to obtain the cDNA of the receptors, express said receptors in heterologous systems, and carry out assays to determine binding affinity are described as follows.
Binding assays were performed according to the following published method: human GALR3 (PCT International Publication No. WO 98/15570).

Q: With COc1ccc(N2C(=O)C(=Nc3ccc(Cl)c(Cl)c3)c3cc(Cl)ccc32)cn1 (racemic) [Example 3, 5-CHLORO-3-[(3,4-DICHLOROPHENYL)IMINO]-1-(6-METHOXY-3-PYRIDINYL)-1,3-DIHYDRO-2H-INDOL-2-ONE] as the molecule, how does the Ki read?
A: 20 nM

Q: O=C1/C(=N\c2ccc3c(c2)OC(F)(F)O3)c2ccccc2N1c1ccc(O)cc1 [Example 1, 3-[(2,2-DIFLUORO-1,3-BENZODIOXOL-5-YL)IMINO]-1-(4-HYDROXYPHENYL)-1,3-DIHYDRO-2H-INDOL-2-ONE] was tested. Which Ki did it give?
A: 72 nM

Q: Which Ki does the source give for COc1ccc(N2C(=O)/C(=N\c3ccc(Cl)c(Cl)c3)c3ccccc32)cn1 [Example 2, 3-[(3,4-DICHLOROPHENYL)IMINO]-1-(6-METHOXY-3-PYRIDINYL)-1,3-DIHYDRO-2H-INDOL-2-ONE] here?
A: 15 nM

Q: O=C1/C(=N\c2cccc(C(F)(F)F)c2)c2ccc(O)cc2N1c1ccccc1 [Example 4, 6-HYDROXY-1-PHENYL-3-{[3-(TRIFLUOROMETHYL)PHENYL]IMINO}-1,3-DIHYDRO-2H-INDOL-2-ONE] was tested. Which Ki did it give?
A: 55 nM

Q: With O=C1/C(=N\c2ccc(Cl)c(Cl)c2)c2ccccc2N1c1ccc(O)cc1 [Example 5, 3-[(3,4-DICHLOROPHENYL)IMINO]-1-(4-HYDROXYPHENYL)-1,3-DIHYDRO-2H-INDOL-2-ONE] as the molecule, how does the Ki read?
A: 27 nM

Q: O=C1/C(=N\c2cc(F)cc(F)c2)c2ccccc2N1c1ccc(O)cc1 [Example 6, 3-[(3,5-DIFLUOROPHENYL)IMINO]-1-(4-HYDROXYPHENYL)-1,3-DIHYDRO-2H-INDOL-2-ONE] was tested. Which Ki did it give?
A: 41 nM

Q: Which Ki does the source give for O=C1/C(=N\c2cccc(C(F)(F)F)c2)c2ccccc2N1c1cccc(O)c1 [Example 7, 1-(3-HYDROXYPHENYL)-3-{[3-(TRIFLUOROMETHYL)PHENYL]IMINO}-1,3-DIHYDRO-2H-INDOL-2-ONE] here?
A: 28 nM

Q: With O=C1/C(=N\c2cccc(C(F)(F)F)c2)c2ccccc2N1c1ccccc1O [Example 8, 1-(2-HYDROXYPHENYL)-3-{[3-(TRIFLUOROMETHYL)PHENYL]IMINO}-1,3-DIHYDRO-2H-INDOL-2-ONE] as the molecule, how does the Ki read?
A: 68 nM

Q: Which Ki does the source give for O=C1/C(=N\c2cccc(C(F)(F)F)c2)c2cc(O)ccc2N1c1ccccc1 [Example 9, 5-HYDROXY-1-PHENYL-3-{[3-(TRIFLUOROMETHYL)PHENYL]IMINO}-1,3-DIHYDRO-2H-INDOL-2-ONE] here?
A: 58 nM

Q: For COc1ccc(N2C(=O)/C(=N\c3cccc(C(F)(F)F)c3)c3ccccc32)cn1 [Example 10, 3-[(3-TRIFLUOROMETHYLPHENYL)IMINO]-1-(6-METHOXY-3-PYRIDINYL)-1,3-DIHYDRO-2H-INDOL-2-ONE], which Ki is on record?
A: 31 nM

Source: patent US7166635B2, “3-imino-2-indolones for the treatment of depression and/or anxiety” (H. Lundbeck A/S, priority 2002, dated 2007)
